Test results taken from US5807854A, “Pyrimidone derivatives with antifungal activity” (J. Uriah & Cia. S.A., priority 1995, dated 1998).
Values after ≈ are worked out from the molar mass of the structure shown.

Experiments:
C. albicans = test: In vitro activity by the agar dilution method, C. albicans; format: cell-based; conditions: Candida albicans; Kimmig's agar, 25° C., 48 h; read-out: MIC (minimal inhibitory concentration), C. albicans
Method: (§1) In vitro activity was evaluated against C. albicans, C. krusei, and Aspergillus fumigatus by the agar dilution method. Test strains were either clinical isolates or were obtained from ATCC. Stock solutions containing 800 μg/mL were prepared by solving the test products in 50% ethanol. The culture medium used was Kimmig's agar (K. A., E. Merck) supplemented with 0.5% glycerol. Plates containing serial dilutions (80 to 0.025 gg/imL) of the test products were inoculated with 10 μL of the fungal inocula, containing 10^5 colony forming units (cfu)/mL. Plates were incubated at 25° C. during 48 h for Candida sp. and during 5 days for Apergillus fumigatus. Following incubation MICs (minimal inhibitory concentrations) were determined.

C. krusei = test: In vitro activity by the agar dilution method, C. krusei; format: cell-based; conditions: Pichia kudriavzevii; Kimmig's agar, 25° C., 48 h; read-out: MIC (minimal inhibitory concentration), C. krusei
Method: as §1

Aspergillus fumigatus = test: In vitro activity by the agar dilution method, Aspergillus fumigatus; format: cell-based; conditions: 120 h, Kimmig's agar, 25° C., 5 days, read-out: MIC (minimal inhibitory concentration), Asp. fumigatus
Method: as §1

Candida albicans = test: In Vivo Activity (Systemic Candidiasis); conditions: po, 576 h, orally at 1 mg/kg at 1, 4 and 24 h after infection, male mice, i.v. infection, read-out: protection on the day where all the animals in the control group had died
Method: Groups of 10 male mice were inoculated i.v. with 0.2 mL of a suspension containing (2-8)×10^7 cfu/mL of Candida albicans. Compounds were administered orally at 1 mg/kg (or at 10 mg/kg for those compounds marked with an asterisk) at times 1, 4 and 24 h after infection.

| Compound | MIC (C. albicans) [µg/mL] | MIC (C. krusei) [µg/mL] | MIC (Aspergillus fumigatus) [µg/mL] | responders at 1 mg/kg (Candida albicans) [%] |
| --- | --- | --- | --- | --- |
| C[C@@H](n1cnc2ccc(Cl)cc2c1=O)[C@](O)(Cn1cncn1)c1ccc(F)cc1F [Example 7, (1R,2R)-6-Chloro-3-[2-(2,4-difluorophenyl)-2-hydroxy-1-methyl-3-(1H-1,2,4-triazol-1-yl)propyl]quinazolin-4(3H)-one] | ≤ 0.03 | 2.5 (≈ 5.79 µM) | 40 (≈ 92.6 µM) | 100 |
| C[C@@H](n1cnc2cc(OCC(F)(F)C(F)F)ccc2c1=O)[C@](O)(Cn1cncn1)c1ccc(F)cc1F [Example 17, (1R,2R)-3-[2-(2,4-Difluorophenyl)-2-hydroxy-1-methyl-3-(1H-1,2,4-triazol-1-yl)propyl]-7-(2,2,3,3-tetrafluoropropoxy)quinazolin-4(3H)-one] | ≤ 0.03 | 0.63 (≈ 1.19 µM) | 20 (≈ 37.9 µM) | 100 |
| C[C@@H](n1cnc2cc(OCC(F)(F)F)ccc2c1=O)[C@](O)(Cn1cncn1)c1ccc(F)cc1F [Example 20, (1R,2R)-3-[2-(2,4-Difluorophenyl)-2-hydroxy-1-methyl-3-(1H-1,2,4-triazol-1-yl)propyl]-7-(2,2,2-trifluoroethoxy)quinazolin-4(3H)-one] | 0.31 (≈ 0.626 µM) | 1.25 (≈ 2.52 µM) | 10 (≈ 20.2 µM) | 100 |
| C[C@@H](n1cnc2cc(Oc3ccc(Cl)cc3)ccc2c1=O)[C@](O)(Cn1cncn1)c1ccc(F)cc1F [Example 39, (1R,2R)-7-(4-Chlorophenoxy)-3-[2-(2,4-difluorophenyl)-2-hydroxy-1-methyl-3-(1H-1,2,4-triazol-1-yl)propyl]quinazolin-4(3H)-one] | ≤ 0.03 | 0.15 (≈ 0.286 µM) | 1.25 (≈ 2.39 µM) | 100 |
| CSc1ccc2c(=O)n([C@H](C)[C@](O)(Cn3cncn3)c3ccc(F)cc3F)cnc2c1 [Example 50, (1R,2R)-3-[2-(2,4-Difluorophenyl)-2-hydroxy-1-methyl-3-(1H-1,2,4-triazol-1-yl)propyl]-7-(methylthio)quinazolin-4(3H)-one] | ≤ 0.03 | 0.31 (≈ 0.699 µM) | 2.5 (≈ 5.64 µM) | 100 |
| C[C@@H](n1cnc2cc(S(=O)(=O)c3ccccc3)ccc2c1=O)[C@](O)(Cn1cncn1)c1ccc(F)cc1F [Example 61, (1R,2R)-3-[2-(2,4-Difluorophenyl)-2-hydroxy-1-methyl-3-(1H-1,2,4-triazol-1-yl)propyl]-7-phenylsulfonylquinazolin-4(3H)-one] | 0.31 (≈ 0.577 µM) | 5 (≈ 9.3 µM) | 5 (≈ 9.3 µM) |  |
| CONC(=N)c1ccc(-c2cc3ncn([C@H](C)[C@](O)(Cn4cncn4)c4ccc(F)cc4F)c(=O)c3s2)cc1 [Example 67, (1R,2R)-3-[2-(2,4-Difluorophenyl)-2-hydroxy-1-methyl-3-(1H-1,2,4-triazol-1-yl)propyl]-6-[4-[imino(methoxyamino)methyl]phenyl]thieno[3,2-d]pyrimidin-4(3H)-one] | 0.31 (≈ 0.562 µM) | 0.63 (≈ 1.14 µM) | 1.25 (≈ 2.27 µM) | 100 |
| CC(=O)ONC(=N)c1ccc(-c2cc3ncn([C@H](C)[C@](O)(Cn4cncn4)c4ccc(F)cc4F)c(=O)c3s2)cc1 [Example 68] | 0.31 (≈ 0.535 µM) | 10 (≈ 17.3 µM) | 20 (≈ 34.5 µM) |  |
| C[C@@H](n1cnc2cc(-c3ccc(C(=N)NCCN)cc3)sc2c1=O)[C@](O)(Cn1cncn1)c1ccc(F)cc1F [Example 70, (1R,2R)-6-[4-[(2-Aminoethylamino)(imino)methyl]phenyl]-3-[2-(2,4-difluorophenyl)-2-hydroxy-1-methyl-3-(1H-1,2,4-triazol-1-yl)propyl]thieno[3,2-d]pyrimidin-4(3H)-one] | 0.07 (≈ 0.124 µM) | 10 (≈ 17.7 µM) | 20 (≈ 35.4 µM) |  |
| C[C@@H](n1cnc2cc(NCc3ccccc3)ccc2c1=O)[C@](O)(Cn1cncn1)c1ccc(F)cc1F [Example 71, (1R,2R)-7-Benzylamino-3-[2-(2,4-difluorophenyl)-2-hydroxy-1-methyl-3-(1H-1,2,4-triazol-1-yl)propyl]quinazolin-4(3H)-one] | ≤ 0.03 | 2.5 (≈ 4.97 µM) | 5 (≈ 9.95 µM) |  |
